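Briefly, cells in 96-well plates were exposed to five compound concentrations for 48 h, and endpoints were estimated by linear interpolation. GI50 = concentration required for 50% inhibition of growth.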 The source made the active and inactive calls. No stated cut-off is given here; in the data, active = GI50 up to about 1.1 µM and inactive = higher.
How the values were obtained:
Test in all cases: inhibition of tumour cell growth, NCI panel, 48 h
DMS-273 = tested on: DMS-273
SK-MEL-28 = tested on: SK-MEL-28
HOP-92 = tested on: HOP-92
M14 = tested on: M14
ACHN = tested on: ACHN
NCI-H460 = tested on: NCI-H460
RXF 393 = tested on: RXF 393
K562 = tested on: K562
SF-295 = tested on: SF-295
CCRF-CEM = tested on: CCRF-CEM
SF-539 = tested on: SF-539
DMS-114 = tested on: DMS-114
SK-MEL-5 = tested on: SK-MEL-5
OVCAR-8 = tested on: OVCAR-8
MDA-N = tested on: MDA-N
HT-29 = tested on: HT-29
UACC-62 = tested on: UACC-62
OVCAR-4 = tested on: OVCAR-4
NCI-H23 = tested on: NCI-H23
SNB-75 = tested on: SNB-75

Measured: GI50

Cc1oc2c(c1C(=O)c1ccccc1)C(=O)c1ccccc1C2=O
inactive: DMS-273 8.34 µM | SK-MEL-28 11.1 µM | HOP-92 2.21 µM | M14 4.28 µM | ACHN 4.65 µM | NCI-H460 9.38 µM | RXF 393 3.48 µM | K562 2.23 µM | SF-295 9.27 µM | CCRF-CEM 2.16 µM | SF-539 10.6 µM | DMS-114 2.45 µM | SK-MEL-5 1.24 µM | OVCAR-8 5.06 µM | MDA-N 2 µM | HT-29 17.8 µM | UACC-62 2.98 µM | OVCAR-4 3.21 µM | NCI-H23 2.01 µM | SNB-75 6.78 µM

O=C(CO)CC(=O)C(=O)Nc1nc([N+](=O)[O-])cs1
inactive: DMS-273 > 100 µM | SK-MEL-28 > 100 µM | HOP-92 > 10 µM | M14 > 100 µM | ACHN > 100 µM | NCI-H460 > 100 µM | RXF 393 > 100 µM | K562 > 100 µM | SF-295 > 100 µM | CCRF-CEM > 100 µM | SF-539 > 100 µM | DMS-114 > 100 µM | SK-MEL-5 > 100 µM | OVCAR-8 > 100 µM | HT-29 > 100 µM | UACC-62 > 100 µM | OVCAR-4 > 100 µM | NCI-H23 > 100 µM | SNB-75 55.1 µM

Cn1c(-c2ccccc2)c/c(=N\NS(C)(=O)=O)c2cc(S(=O)(=O)O)ccc21
inactive: DMS-273 > 100 µM | SK-MEL-28 > 100 µM | HOP-92 > 100 µM | M14 > 100 µM | ACHN > 100 µM | NCI-H460 > 100 µM | RXF 393 > 100 µM | K562 > 100 µM | SF-295 > 100 µM | CCRF-CEM > 100 µM | SF-539 > 100 µM | DMS-114 > 100 µM | SK-MEL-5 > 100 µM | OVCAR-8 > 100 µM | HT-29 > 100 µM | UACC-62 > 100 µM | OVCAR-4 > 100 µM | NCI-H23 > 100 µM | SNB-75 > 100 µM

Source: ChEMBL document CHEMBL1201862, “PubChem BioAssay data set” (2004)
